Counter-ions that a name gives are not always drawn.
How the values were obtained:
[1] = system: CCR2 expressing cells (CD11b+Ly6c+ Hi) in peripheral blood; assay: In Vivo Depletion Assay (flow cytometry of peripheral blood); set-up: species or system Human CCR2 (hCCR2) knock-in mice; conditions: hCCR2 knock-in mice; IV 0.1 mpk compound + 10 mpk anti-cotinine antibody (mouse IgG2a Fc); peripheral blood at 48 hr
Description: Human CCR2 (hCCR2) knock-in mice (057 background) were dosed intravenously with a PBS solution containing a compound of Formula (I) to measure depletion of CCR2 expressing cells in peripheral blood. Peripheral blood from IV dosed mice was also analyzed to determine PK properties of the ARM compounds of Formula (I).
Stock solution preparation: Stock solutions of compounds of Formula (I) were prepared at 20 mg/mL and 100 mg/mL in DMSO for PK/PD and dose tolerability studies respectively. Stock solutions were stored at −20° C. until further usage.
Formulations preparation: On the day of experiment, the stock solution of the compound of Formula (I) was removed from storage at −20° C. and thawed at room temperature. Anti-cotinine antibody having a heavy chain sequence of SEQ ID NO: 13 and a light chain sequence of SEQ ID NO: 14 (rabbit variable region sequence with mouse IgG2a Fc domain), if required was removed from storage at −80° C. and thawed at room temperature. Antibody vials were immediately transferred into wet ice after thawing. Compounds of Formula (I) were further diluted in DMSO as per experimental requirements.
Formulation composition: The formulation composition was Saline: DMSO: PBS. Saline was added based on the quantity required and then stock solution of the compound of Formula (I) prepared in DMSO, followed by addition of antibody in PBS. Formulations were incubated at room temperature for 30 minutes before administration to the mouse. DMSO was used at 1 to 2% (v/v) in the final formulation.
Administration to Animal: Solution formulation of antibody and compound of Formula (I) was injected (bolus injection) to the restrained mouse in the right/left lateral tail vein. Animals were dosed with 0.1 milligram per kilogram (mpk) of the compound of Formula (I) and 10 mpk of the anti-cotinine antibody.
Terminal bleeding at end of experiment (48 hr): Approximately 250 μL of blood in K2EDTA tube and approximately 250 μL of blood in SST (serum separation tube) was collected from each mouse through retro-orbital bleeding under deep isoflurane anesthesia. After bleeding, each mouse was sacrificed by cervical dislocation. The blood distribution at termination was determined as follows: • For PK: 50 μL of K2EDTA blood was transferred to another tube for PK • Flow cytometry: Remaining blood (˜200 μL) was used for flow cytometry analysis. • For serum collection: serum separator tubes (BD) were centrifuged at 4° C., 5000 rpm for 15 minutes. Approximately 100 μL serum was separated and stored at −80° C. for further usage. • Blood drug concentration: Samples collected at the various timepoints (0.25 hr, 2 hr, 24 and 48 hr) were analyzed to determine blood drug concentration.
CCR2 depletion in peripheral blood was determined by flow cytometry. Briefly, peripheral blood was collected from all animals at the end of study termination and processed. Blood samples were lysed using 1×RBC Lysis buffer and the resulting cell pellet was washed twice in FACS buffer (HBSS containing 5% FBS). Cells were subjected to Fc blocking using mouse Fc block from Biolegend (Trustain, anti-mouse CD16/32, Cat: 101319) to block non-specific binding followed by surface staining for immune markers (CD45, CD3, CD11b, Ly6C, human CCR2). Surface staining was done for 30 minutes in ice and cells were washed twice to remove unbound antibodies. Cells were stained with 7AAD to determine viability and acquired on BD FACSVerse flow cytometer. Appropriate FMO controls and single-color controls were included in the experiment for gating and compensation respectively.
Percent depletion of CD11b+Ly6c+ Hi cells and CCR2 expression for the different treatment groups was determined. The results are shown below in Table 4 and are reported as percent (%) depletion of CCR2 expressing cells.

[2] = biological target: T1, CHOK1 cells engineered to overexpress human CCR2 (Homo sapiens, UniProt P41597); assay: Antibody Dependent Cellular Cytotoxicity (ADCC) Reporter Assay; format: cell-based; conditions: with anti-cotinine antibody (human IgG1 Fc, S239D/I332E); Jurkat FcγRIIIa NFAT-luciferase reporter cells; average if several runs; read-out: ADCC Reporter Assay pEC50 (converted)
T1 construct: expressed in transfected cells; host or cells: CHOK1
Description: An antibody dependent cellular cytoxocity reporter assay was conducted using the following four assay components: (i) ARM compound of Formula (I) targeting CCR2 (concentrations ranging from 1 pM to 10 μM) (ii) anti-cotinine antibody having a heavy chain sequence of SEQ ID NO: 11 and a light chain sequence of SEQ ID NO: 12 (rabbit variable region with human IgG1 Fc domain containing a DE mutation (S239D/I332E)) (concentrations ranging from 0.01 μg/mL to 200 μg/mL); (iii) target cells: CHOK1 cells engineered to overexpress either human CCR2 (typically 1000-20,000 cells per well) and (iv) reporter cells: Jurkat cells engineered to express FcγRIIIa with the reporter gene luciferase under the control of the NFAT promoter (typically 3000-75,000 cells per well). Reagents were combined in a final volume of 20 μL in a 384-well tissue culture treated plate. All four assay components were incubated together for about 12-18 hours. Thereafter, BioGlo Detection reagent (Promega) was added to the wells to lyse the cells and provide a substrate for the luciferase reporter protein. Luminescence signal was measured on a microplate reader and signal:background was calculated by dividing the signal of a test well by the signal obtained when no heterobivalent compound of Formula (I) was added. EC50 calculations were done using Graphpad Prism Software, specifically a nonlinear regression curve fit (Y=Bottom+(Top−Bottom)/(1+10 ^((Log EC50−X)*HillSlope))).
ARMs compounds of Formula (I) of the invention were tested for ADCC activity in the above assay in or more experimental runs and the results are shown in Table 3 below. Potency of the compounds of Formula (I) of the invention is reported as a pEC50 value. The pEC50 value is the negative log of the EC50 value, wherein the EC50 value is the half maximal effective concentration measured in molar (M). For compounds tested in more than one experimental run, the pEC50 value is reported as an average.

Row | Structure (SMILES) | % Depletion of CCR2 expressing cells [1] [%] | EC50 [2] [nM]
1 | CO[C@@H]1COCC[C@@H]1N[C@@H]1CC[C@](CCCCCNC(=O)[C@H]2CC[C@H](NC(=O)CCCO[C@H]3CC[C@H](OCCNC(=O)[C@H]4CC(=O)N(C)[C@@H]4c4cccnc4)CC3)CC2)(C(=O)N2CCc3ncc(C(F)(F)F)cc3C2)C1 [Example 9, (2S,3S)-N-(2-(((1R,4S)-4-(4-(((1S,4R)-4-((5-((1S,3R)-3-(((3S,4S)-3-Methoxytetrahydro-2H-pyran-4-yl)amino)-1-(3-(trifluoromethyl)-5,6,7,8-tetrahydro-1,6-naphthyridine-6-carbonyl)cyclopentyl)pentyl)carbamoyl)cyclohexyl)amino)-4-oxobutoxy)cyclohexyl)oxy)ethyl)-1-methyl-5-oxo-2-(pyridin-3-yl)pyrrolidine-3-carboxamide] | 99 | 1.26
2 | CO[C@@H]1COCC[C@@H]1N[C@@H]1CC[C@](CCCNC(=O)CCOCCOCCOCCOCCOCCOCCOCCOCCOCCOCCOCCOCCNC(=O)[C@H]2CC(=O)N(C)[C@@H]2c2cccnc2)(C(=O)N2CCc3ncc(C(F)(F)F)cc3C2)C1 [Example 1, (2S,3S)—N-(43-((1S,3R)-3-(((3S,4S)-3-methoxytetrahydro-2H-pyran-4-yl)amino)-1-(3-(trifluoromethyl)-5,6,7,8-tetrahydro-1,6-naphthyridine-6-carbonyl)cyclopentyl)-39-oxo-3,6,9,12,15,18,21,24,27,30,33,36-dodecaoxa-40-azatritetracontyl)-1-methyl-5-oxo-2-(pyridin-3-yl)pyrrolidine-3-carboxamide] | 91.67 | 2.51
3 | CO[C@@H]1COCC[C@@H]1N[C@@H]1CC[C@](CCCNC(=O)[C@H]2CC[C@H](NC(=O)CCCO[C@H]3CC[C@H](OCCNC(=O)[C@H]4CC(=O)N(C)[C@@H]4c4cccnc4)CC3)CC2)(C(=O)N2CCc3ncc(C(F)(F)F)cc3C2)C1 [Example 3, (2S,3S)-N-(2-(((1R,4S)-4-(4-(((1S,4R)-4-((3-((1S,3R)-3-(((3S,4S)-3-Methoxytetrahydro-2H-pyran-4-yl)amino)-1-(3-(trifluoromethyl)-5,6,7,8-tetrahydro-1,6-naphthyridine-6-carbonyl)cyclopentyl)propyl)carbamoyl)cyclohexyl)amino)-4-oxobutoxy)cyclohexyl)oxy)ethyl)-1-methyl-5-oxo-2-(pyridin-3-yl)pyrrolidine-3-carboxamide] | 98.4 | 0.631
4 | CO[C@@H]1COCC[C@@H]1N[C@@H]1CC[C@@](C(=O)N2Cc3cc(C(F)(F)F)cnc3[C@H](NC(=O)[C@H]3CC[C@H](NC(=O)CCCO[C@H]4CC[C@H](OCCNC(=O)[C@H]5CC(=O)N(C)[C@@H]5c5cccnc5)CC4)CC3)C2)(C(C)C)C1 [Example 14, (2S,3S)-N-(2-(((1R,4S)-4-(4-(((1R,4R)-4-(((R)-6-((1S,3R)-1-isopropyl-3-(((3S,4S)-3-methoxytetrahydro-2H-pyran-4-yl)amino)cyclopentane-1-carbonyl)-3-(trifluoromethyl)-5,6,7,8-tetrahydro-1,6-naphthyridin-8-yl)carbamoyl)cyclohexyl)amino)-4-oxobutoxy)cyclohexyl)oxy)ethyl)-1-methyl-5-oxo-2-(pyridin-3-yl)pyrrolidine-3-carboxamide, 3Formic acid salt] | 92.3 | < 0.002
5 | CO[C@@H]1COCC[C@@H]1N[C@@H]1CC[C@](CCCNC(=O)[C@H]2CC[C@@H](NC(=O)CCCO[C@H]3CC[C@@H](OCCNC(=O)[C@H]4CC(=O)N(C)[C@@H]4c4cccnc4)CC3)CC2)(C(=O)N2CCc3ncc(C(F)(F)F)cc3C2)C1 [Example 4, (2S,3S)-N-(2-(((1S,4R)-4-(4-(((1R,4S)-4-((3-((1S,3R)-3-(((3S,4S)-3-Methoxytetrahydro-2H-pyran-4-yl)amino)-1-(3-(trifluoromethyl)-5,6,7,8-tetrahydro-1,6-naphthyridine-6-carbonyl)cyclopentyl)propyl)carbamoyl)cyclohexyl)amino)-4-oxobutoxy)cyclohexyl)oxy)ethyl)-1-methyl-5-oxo-2-(pyridin-3-yl)pyrrolidine-3-carboxamide, Formic acid salt] | 99.69 | 0.794
6 | CO[C@@H]1COCC[C@@H]1N[C@@H]1CC[C@](CCCNC(=O)CCOCCOCCO[C@H]2CC[C@H](OCCNC(=O)[C@H]3CC(=O)N(C)[C@@H]3c3cccnc3)CC2)(C(=O)N2CCc3ncc(C(F)(F)F)cc3C2)C1 [Example 20, ((2S,3S)—N-(2-(((1r,4S)-4-(2-(2-(3-((3-((1S,3R)-3-(((3S,4S)-3-Methoxytetrahydro-2H-pyran-4-yl)amino)-1-(3-(trifluoromethyl)-5,6,7,8-tetrahydro-1,6-naphthyridine-6-carbonyl)cyclopentyl)propyl)amino)-3-oxopropoxy)ethoxy)ethoxy)cyclohexyl)oxy)ethyl)-1-methyl-5-oxo-2-(pyridin-3-yl)pyrrolidine-3-carboxamide, Formic acid salt] | 87.3 | 3.98
7 | CO[C@@H]1COCC[C@@H]1N[C@@H]1CC[C@](CCCCNC(=O)[C@H]2CC[C@H](NC(=O)CCCO[C@H]3CC[C@H](OCCNC(=O)[C@H]4CC(=O)N(C)[C@@H]4c4cccnc4)CC3)CC2)(C(=O)N2CCc3ncc(C(F)(F)F)cc3C2)C1 [Example 7, (2S,3S)-N-(2-(((1R,4S)-4-(4-(((1S,4R)-4-((4-((1S,3R)-3-(((3S,4S)-3-Methoxytetrahydro-2H-pyran-4-yl)amino)-1-(3-(trifluoromethyl)-5,6,7,8-tetrahydro-1,6-naphthyridine-6-carbonyl)cyclopentyl)butyl)carbamoyl)cyclohexyl)amino)-4-oxobutoxy)cyclohexyl)oxy)ethyl)-1-methyl-5-oxo-2-(pyridin-3-yl)pyrrolidine-3-carboxamide] | 86.93 | 2.51

From patent US20250154288A1, “CYTOTOXICITY TARGETING CHIMERAS FOR C-C CHEMOKINE RECEPTOR 2-EXPRESSING CELLS” (GLAXOSMITHKLINE INTELLECTUAL PROPERTY DEVELOPMENT LIMITED, priority 2022, published 2025)
